From ChEMBL document CHEMBL3217485, “Understanding and overcoming aminoglycoside resistance caused by N-6'-acetyltransferase” (Medchemcomm, 2012)
≈ marks a conversion by molar mass, not a printed value. Calls of active or inactive are those of the source. The calls are words filed in the database; no cut-off is given here. Where a SMILES comes first, the peptide text is derived from it. [ ]: non-standard residue; d: D form. Orn = NCCC[C@H](N)C(=O)O

Legend:
[1] = system: Escherichia coli; experiment: Antibacterial activity against kanamycin-resistant Escherichia coli K-12 R5 expressing AAC(6') enzyme; format: functional
[2] = system: Pseudomonas aeruginosa; experiment: Antibacterial activity against kanamycin-resistant Pseudomonas aeruginosa GN315 expressing AAC(6') enzyme; format: functional
[3] = Binding affinity to AAC(6')-lb (unknown origin)
[4] = Activity at AAC(6')-li (unknown origin)
[5] = system: Escherichia coli; experiment: Antibacterial activity against Escherichia coli ATCC 25922; format: functional
[6] = Binding affinity to biotinylated Escherichia coli 16S rRNA A-site
[7] = Ratio of Kcat to Km for AAC(6')-li (unknown origin)
[8] = biological target: Aac(6')-Ii protein (Enterococcus faecium, UniProt Q47764); experiment: Inhibition of Enterococcus faecium AAC(6')-li
Chain of Aac(6')-Ii protein (Q47764 whole entry): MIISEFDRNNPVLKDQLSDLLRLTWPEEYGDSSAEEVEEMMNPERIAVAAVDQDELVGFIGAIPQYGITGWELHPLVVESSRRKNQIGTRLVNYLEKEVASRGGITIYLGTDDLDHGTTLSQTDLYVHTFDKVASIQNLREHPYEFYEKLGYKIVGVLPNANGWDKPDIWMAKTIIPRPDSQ

[9] = Inhibition of AAC(6')-li (unknown origin)
[10] = Inhibition of AAC(6')-le (unknown origin)

## CNC[C@@H]1CC[C@@H](N)[C@@H](O[C@H]2[C@H](O)[C@@H](O[C@@H]3O[C@@H](CO)[C@H](O)[C@@H](N)[C@@H]3O)[C@H](N)C[C@@H]2N)O1
[1]
  MIC: 1.56 µg/mL (≈ 3.35 µM)
[2]
  MIC: 12.5 µg/mL (≈ 26.9 µM)

## N[C@@H]1C[C@H](N)[C@@H](O)C1
[3]
  Kd: 41 µM

## NC[C@H]1O[C@H](O[C@H]2[C@H](OCC(=O)NCCCNC(=O)CO[C@@H]3[C@@H](O)[C@H](N)C[C@H](N)[C@H]3O[C@H]3O[C@H](CN)[C@@H](O)[C@H](O)[C@H]3N)[C@@H](O)[C@H](N)C[C@@H]2N)[C@H](N)[C@@H](O)[C@@H]1O
[4]
  Km: 53.4 µM
  kcat: 0.86 s⁻¹
[5]
  MIC: 31 µM (≈ 24.8 µg/mL)
[6]
  Kd: 1.1 µM
[7]
  kcat/Km: 1.6 ×10⁴ /M/s

## CC(=O)CC(=O)NCC(C)(C)[C@@H](O)C(=O)NCCC(=O)NCCSCC(=O)NC[C@H]1O[C@H](O[C@H]2[C@H](O)[C@@H](O)[C@H](N)C[C@@H]2N)[C@H](N)[C@@H](O)[C@@H]1O
[8]
  Ki: ≥ 200 µM

## NC[C@H]1O[C@H](O[C@H]2[C@H](O)[C@@H](O)[C@H](N)C[C@@H]2N)[C@H](N)[C@@H](O)[C@@H]1O [NEAMINE]
[4]
  Km: 5.82 µM
  kcat: 0.419 s⁻¹
[5]
  MIC: 50 µM (≈ 16.1 µg/mL)
[6]
  Kd: 10 µM
[7]
  kcat/Km: 7.2 ×10⁴ /M/s

## CC(C)C[C@@H]1NC(=O)[C@H](CCCN)NC(=O)[C@H](C(C)C)NC(=O)[C@@H]2CCCN2C(=O)[C@@H](Cc2ccccc2)NC(=O)[C@H](CC(C)C)NC(=O)[C@H](CCCN)NC(=O)[C@H](C(C)C)NC(=O)[C@@H]2CCCN2C(=O)[C@@H](Cc2ccccc2)NC1=O [GRAMICIDIN S] (cyclo(L[dF]PV[Orn]L[dF]PV[Orn]))
[9]
  inhibition: inactive
[10]
  IC50: 14 µM

## CC(C)(CO)[C@@H](O)C(=O)NCCC(=O)NCCSCC(=O)NC[C@H]1O[C@H](O[C@H]2[C@H](O)[C@@H](O)[C@H](N)C[C@@H]2N)[C@H](N)[C@@H](O)[C@@H]1O
[8]
  Ki: ≥ 500 µM

## H-KWKKFIKSLTKAAKTVVKTAKKPLIV-OH
[9]
  IC50: 24 µM
[10]
  inhibition: inactive

## CNC[C@H]1O[C@H](O[C@H]2[C@H](O)[C@@H](O[C@@H]3O[C@@H](CO)[C@H](O)[C@@H](N)[C@@H]3O)[C@H](NC(=O)[C@@H](O)CCN)C[C@@H]2N)[C@H](O)[C@@H](O)[C@@H]1O
[1]
  MIC: 1.56 µg/mL (≈ 2.6 µM)
[2]
  MIC: 25 µg/mL (≈ 41.7 µM)

## CC(C)(COP(=O)(O)OP(=O)(O)OC[C@H]1O[C@@H](n2cnc3c(N)ncnc32)[C@H](O)[C@@H]1OP(=O)(O)O)[C@@H](O)C(=O)NCCC(=O)NCCSCCCCC(=O)NC[C@H]1O[C@H](O[C@H]2[C@H](O)[C@@H](O)[C@H](N)C[C@@H]2N)[C@H](N)[C@@H](O)[C@@H]1O
[9]
  Ki: 8 µM

## CC(C)(CO)[C@@H](O)C(=O)NCCC(=O)NCCSCCCC(=O)NC[C@H]1O[C@H](O[C@H]2[C@H](O)[C@@H](O)[C@H](N)C[C@@H]2N)[C@H](N)[C@@H](O)[C@@H]1O
[8]
  Ki: ≥ 500 µM

## N[C@H]1[C@@H](O[C@H]2[C@H](O)[C@@H](O)[C@H](N)C[C@@H]2N)O[C@H](CNC(=O)CO)[C@@H](O)[C@@H]1O
[4]
  Km: > 500 µM

## CN(CCCCN(C)C[C@@H](O)CO[C@@H]1[C@@H](O)[C@H](N)C[C@H](N)[C@H]1O[C@H]1O[C@H](CN)[C@@H](O)[C@H](O)[C@H]1N)C[C@@H](O)CO[C@@H]1[C@@H](O)[C@H](N)C[C@H](N)[C@H]1O[C@H]1O[C@H](CN)[C@@H](O)[C@H](O)[C@H]1N
[4]
  Km: 28.7 µM
  kcat: 0.26 s⁻¹
[5]
  MIC: 6.25 µM (≈ 5.46 µg/mL)
[6]
  Kd: 0.04 µM
[7]
  kcat/Km: 0.93 ×10⁴ /M/s

## CCNC[C@H]1O[C@H](O[C@H]2[C@H](O)[C@@H](O[C@@H]3O[C@@H](CO)[C@H](O)[C@@H](N)[C@@H]3O)[C@H](NC(=O)[C@@H](O)CCN)C[C@@H]2N)[C@H](O)[C@@H](O)[C@@H]1O
[1]
  MIC: 1.56 µg/mL (≈ 2.54 µM)
[2]
  MIC: 100 µg/mL (≈ 163 µM)

## CC(C)(COP(=O)(O)OP(=O)(O)OC[C@H]1O[C@@H](n2cnc3c(N)ncnc32)[C@H](O)[C@@H]1OP(=O)(O)O)[C@@H](O)C(=O)NCCC(=O)NCCSCCCC(=O)NC[C@H]1O[C@H](O[C@H]2[C@H](O)[C@@H](O)[C@H](N)C[C@@H]2N)[C@H](N)[C@@H](O)[C@@H]1O
[9]
  Ki: 0.161 µM

## CC(C)(COP(=O)(O)OP(=O)(O)OC[C@H]1O[C@@H](n2cnc3c(N)ncnc32)[C@H](O)[C@@H]1OP(=O)(O)O)[C@@H](O)C(=O)NCCC(=O)NCCSCCCCCC(=O)NC[C@H]1O[C@H](O[C@H]2[C@H](O)[C@@H](O)[C@H](N)C[C@@H]2N)[C@H](N)[C@@H](O)[C@@H]1O
[9]
  Ki: 5.2 µM

## CC(C)(CO)[C@@H](O)C(=O)NCCC(=O)NCCSCCCCC(=O)NC[C@H]1O[C@H](O[C@H]2[C@H](O)[C@@H](O)[C@H](N)C[C@@H]2N)[C@H](N)[C@@H](O)[C@@H]1O
[8]
  Ki: ≥ 500 µM

## CC(C)(COC(=O)CCC(=O)O)[C@@H](O)C(=O)NCCC(=O)NCCSCC(=O)NC[C@H]1O[C@H](O[C@H]2[C@H](O)[C@@H](O)[C@H](N)C[C@@H]2N)[C@H](N)[C@@H](O)[C@@H]1O
[8]
  Ki: ≥ 1000 µM

## CC(C)(COP(=O)(O)OP(=O)(O)OC[C@H]1O[C@@H](n2cnc3c(N)ncnc32)[C@H](O)[C@@H]1OP(=O)(O)O)[C@@H](O)C(=O)NCCC(=O)NCCSCCC(=O)NC[C@H]1O[C@H](O[C@H]2[C@H](O)[C@@H](O)[C@H](N)C[C@@H]2N)[C@H](N)[C@@H](O)[C@@H]1O
[9]
  Ki: 0.043 µM
